“And” between values parts separate entries of the source, which are not always exact repeats. Equal entries are not always repeated. “Also recorded” adds a separate entry of the source. Structures can show the parent of a compound that is named as a salt. Where two headings read alike, the source gives them in different places.
Legend:
anti-Chlamydia abzymes [1] = format: biochemical, human; set-up: key to In-vitro Inhibition: + = inhibition; − = no inhibition
lesion IgG = test: LDL peroxidation by lesion IgG (MDA); format: biochemical, human
[2] = system: Chlamydia pneumoniae or Chlamydia Psittaci; format: biochemical
anti-Chlamydia abzymes [3] = format: in vivo, human; settings: for abzyme activity of individuals, + aspirin: self-reported aspirin takers, one value per individual
[4] = Clinical condition, modified Rose-Blackburn Questionnaire; format: in vivo, human
Text: The progression of the clinical condition of the patients was monitored by the use of the modified Bruce Protocol for treadmill exercise/stress ECG testing and on the Rose-Blackburn Questionnaire (Cardiovascular Survey Methods. WHO, Geneva, 1968)

[5] = 10 μM of each agent, control 24.3

In the case of Heparin, the Anti-Abzyme accivity (anti-Chlamydia abzymes [1]; 0.1 mg/ml, control 21.7) is reported as 19.7 μM MDA/ml.

Nadroparin Calcium showed an Anti-Abzyme accivity (anti-Chlamydia abzymes [1]; 5 UI, control 21.7) of 20.5 μM MDA/ml and an Anti-Abzyme accivity (anti-Chlamydia abzymes [1]; 65 UI, control 21.7) of 12.8 μM MDA/ml.

With CC(C)(S)[C@@H](N)C(=O)O [Penicillamine] the “Result (inhibition of anti-Chlamydia abzymes)” value (anti-Chlamydia abzymes [1]; 10 μM of each agent) was “Positive” and the “Lipid oxidising activity of anti-Chlamydia abzymes” value (from here on “Lipid oxidising activity”) (anti-Chlamydia abzymes [1]; [5]) was 0 μM MDA/ml.

With CCN(CC)C(=S)S [DDC] the “In-vitro Inhibition” value (anti-Chlamydia abzymes [1]) was “+”, the “Result (inhibition of anti-Chlamydia abzymes)” value (anti-Chlamydia abzymes [1]; 10 μM of each agent) was “Positive” and the “Lipid oxidising activity” value (anti-Chlamydia abzymes [1]; [5]) was 0 μM MDA/ml.

With C[S+](C)[O-] [DMSO] the “Level of MDA production by 0.82 μg of lesion IgG” value (“Level of MDA production” below) (lesion IgG; +1% antioxidant, LDL 480 μg of protein, control 0.49 ± 0.023) was 0 µM and the “development of lipid oxidation reaction after treatment of Chlamydia with chaotropic agents” value (“development of lipid oxidation reaction” for short) [2] was “completely abrogated”.

For O=C(O)CN(CCN(CC(=O)O)CC(=O)O)CCN(CC(=O)O)CC(=O)O [DTPA], the “Result (inhibition of anti-Chlamydia abzymes)” value (anti-Chlamydia abzymes [1]; 10 μM of each agent) was “Negative”.

In the case of CC[C@H]1OC(=O)[C@H](C)[C@@H](O[C@H]2C[C@@](C)(OC)[C@@H](O)[C@H](C)O2)[C@H](C)[C@@H](O[C@@H]2O[C@H](C)C[C@H](N(C)C)[C@H]2O)[C@](C)(O)C[C@@H](C)CN(C)[C@H](C)[C@@H](O)[C@]1(C)O [Azithromycin], the “in vitro inhibition of abzyme activity” value (anti-Chlamydia abzymes [1]) is reported as “strong in vitro inhibitor of abzyme activity”, the “Lipid oxidising activity” value (anti-Chlamydia abzymes [1]; in DMSO, 5 μM, control 61, DMSO effect deducted) is reported as 0 μM MDA/ml and the “Abzyme activity after 15 days / two weeks” value (anti-Chlamydia abzymes [3]; Example 8, stable angina patients) is reported as “reduced abzyme activity”. For the same compound, the “Anti-Chlamydia abzyme activity, 45 days, group mean” value (anti-Chlamydia abzymes [3]; Therapy Group A, before 47.5) was 7.4 μM MDA/ml, the “Anti-Chlamydia abzyme activity, 60 days, group mean” value (anti-Chlamydia abzymes [3]; Therapy Group A, before 47.5) was 1.6 μM MDA/ml and the “Clinical condition After 15 days of treatment” value ([4]; Table 17, anti-microbial agent only, single patients) was “angina class II;; also recorded: Stable condition;”. The “Score by modified Rose-Blackburn Questionnaire, 60 days after start of the treatment, group mean” value ([4]; before: A 19.4 ± 1.79, B 20.4 ± 1.24, C 18.6 ± 0.81) was 14.4 ± 1.14.

With O=[N+]([O-])O[C@H]1CO[C@H]2[C@@H]1OC[C@H]2O[N+](=O)[O-] [Isosorbide Dinitrate] the Anti-Abzyme accivity (anti-Chlamydia abzymes [1]; 42 μM, control 21.7) was 0 μM MDA/ml and the Anti-Abzyme accivity (anti-Chlamydia abzymes [1]; 211 μM, control 21.7) was 0 μM MDA/ml.

For O=C(O)c1ccccn1 [Picolinic acid], the “Result (inhibition of anti-Chlamydia abzymes)” value (anti-Chlamydia abzymes [1]; 10 μM of each agent) was “Positive” and the “Lipid oxidising activity” value (anti-Chlamydia abzymes [1]; [5]) was 0 μM MDA/ml.

In the case of CC(=O)Oc1ccccc1C(=O)O [Aspirin, acetylsalicylic acid], the “Result (inhibition of anti-Chlamydia abzymes)” value (anti-Chlamydia abzymes [1]; 10 μM of each agent) is reported as “Positive”, the “Lipid oxidising activity” value (anti-Chlamydia abzymes [1]; [5]) is reported as 6.2 μM MDA/ml and the “abzyme activity after a week” value (anti-Chlamydia abzymes [3]; 250 mg aspirin daily, the other two CHD patients) is reported as “undetectably low level”. The “abzyme activity, aspirin alone” value (anti-Chlamydia abzymes [3]; Therapy Group D, 250 mg daily) was “reduction in the abzyme activity but to a lesser degree than observed with the combination”, the “individuals positive for abzymes / individuals, + aspirin” value (anti-Chlamydia abzymes [3]; stable angina class I) was 1/6 and the “percentage positive for abzymes, + aspirin” value (“percentage positive” below) (anti-Chlamydia abzymes [3]; stable angina class I) was 17%. For the same compound, the “abzyme activity, group mean, + aspirin” value (anti-Chlamydia abzymes [3]; stable angina class I, n = 6, without aspirin 30.0) was 10.0, the “abzyme activity of individuals, + aspirin” value (anti-Chlamydia abzymes [3]; stable angina class I) was 5 and 45 and 0 (3×) and 10 and the “individuals positive for abzymes / individuals, + aspirin” value (anti-Chlamydia abzymes [3]; stable angina class II) was 4/15. For the same compound, the “percentage positive” value (anti-Chlamydia abzymes [3]; stable angina class II) was 27%, the “abzyme activity, group mean, + aspirin” value (anti-Chlamydia abzymes [3]; stable angina class II, n = 15, without aspirin 32.2) was 9.2 and the “abzyme activity of individuals, + aspirin” value (anti-Chlamydia abzymes [3]; stable angina class II) was 5 (4×) and 10 (2×) and 0 (4×) and 25 and 3.3 and 30. For the same compound, the “individuals positive for abzymes / individuals, + aspirin” value (anti-Chlamydia abzymes [3]; stable angina class III) was 6/10, the “percentage positive” value (anti-Chlamydia abzymes [3]; stable angina class III) was 60% and the “abzyme activity of individuals, + aspirin” value (anti-Chlamydia abzymes [3]; stable angina class III) was 0 (3×) and 45 and 5 and 35 and 15 and 30 and 20. The “individuals positive for abzymes / individuals, + aspirin” value (anti-Chlamydia abzymes [3]; unstable angina IV) was 6/7, the “percentage positive” value (anti-Chlamydia abzymes [3]; unstable angina IV) was 86% and the “abzyme activity of individuals, + aspirin” value (anti-Chlamydia abzymes [3]; unstable angina IV) was 130 and 70 and 0 and 37 and 90 and 100 and 180.

In the case of CCCCCCCCCCCCOS(=O)(=O)[O-].[Na+] [SDS], the “lipid oxidising reaction with treated Chlamydia samples” value (“lipid oxidising reaction” for short) [2] is reported as “no lipid oxidising reaction”.

For N.N.O=S(=O)(O)O [ammonium sulphate], the “lipid oxidising reaction” value [2] was “no lipid oxidising reaction”.

For CC(C)NCC(O)COc1cccc2ccccc12 (stereo not shown) [Propranolol Hydrochloride], the Anti-Abzyme accivity (anti-Chlamydia abzymes [1]; Hydrochloride) was 21.3 μM MDA/ml and 18.3 μM MDA/ml.

In the case of O=C[O-].[Na+] [sodium formate], the “Level of MDA production” value (lesion IgG; +0.1 M antioxidant, LDL 480 μg of protein, 16 h 37° C. pH 5.6, control 0.49 ± 0.023) is reported as 0 µM.

With Igepal CA-630 the “development of lipid oxidation reaction” value [2] was “completely abrogated” and the “oxidation of the lipids in the bacteria by the extracted abzymes after detergent treatment” value [2] was “abolished”.

Compound O=[N+]([O-])OCC(CO[N+](=O)[O-])O[N+](=O)[O-] [Glyceryl Trinitrate] has an Anti-Abzyme accivity (anti-Chlamydia abzymes [1]; 4.4 μM, control 21.7) of 0 μM MDA/ml, an Anti-Abzyme accivity (anti-Chlamydia abzymes [1]; 22 μM, control 21.7) of 0 μM MDA/ml and an Anti-Abzyme accivity (anti-Chlamydia abzymes [1]; 44 μM, control 21.7) of 0 μM MDA/ml. The Anti-Abzyme accivity (anti-Chlamydia abzymes [1]; 220 μM, control 21.7) was 0 μM MDA/ml.

Compound CCC[C@@H]1C[C@@H](C(=O)N[C@@H]([C@H]2O[C@H](SC)[C@H](O)[C@@H](O)[C@H]2O)[C@@H](C)O)N(C)C1 [Lincomycin Hydrochloride] has an Anti-Abzyme accivity (anti-Chlamydia abzymes [1]; 6.5 μM, control 21.7) of 28.5 μM MDA/ml and an Anti-Abzyme accivity (anti-Chlamydia abzymes [1]; 13 μM, control 21.7) of 30.3 μM MDA/ml.

With O=C(O)c1ccccc1 [benzoic acid] the “Level of MDA production” value (lesion IgG; pH 5.6) was 0 µM.

In the case of [N-]=[N+]=[N-].[Na+] [NaN1], the “Result (inhibition of anti-Chlamydia abzymes)” value (anti-Chlamydia abzymes [1]; 10 μM of each agent) is reported as “Positive” and the “Lipid oxidising activity” value (anti-Chlamydia abzymes [1]; [5]) is reported as 0 μM MDA/ml.

With Triton X-100 the “development of lipid oxidation reaction” value [2] was “completely abrogated” and the “oxidation of the lipids in the bacteria by the extracted abzymes after detergent treatment” value [2] was “abolished”.

With C=O [formalin] the “lipid oxidising reaction” value [2] was “no lipid oxidising reaction”.

From patent US7148028B2, “Methods and means relating to atherosclerosis” (priority 2001, dated 2006)
